# Experiments:
# [1] = system: NF-κB; assay: Inhibition of NF-κB in human monocytic cell lines (U937-3xkB-LUC luciferase assay); type: cell-based; conditions: U937-3xkB-LUC cells, NF-κB induced by LPS or human TNF-α; FIG. 1
# Description: The novel compounds and DHA were solubilized to 12.5 μM in DMSO flushed with argon and stored at −20° C. Dexamethasone 10 μM in DMSO was used as positive control.
# U937-3xkB-LUC cells, (Carlsen, J. Immun, 2002), were cultured in RPMI-1640 medium with L-glutamine ([…]), penicillin (50 U/ml), streptomycin ([…]), hygromycin (75 ug/ml), 10% Fetal Bovine Serum at 37° C. and 5% CO2. In the Cells were seeded in 24-well plates wherein 1% Fetal Bovin Serum was added to the medium. NF-κB activity was induced by lipopolysaccharide (LPS) (1 ug/ml) or human TNF-α (10 ng/ml). Cell viability was measured by trypan blue staining.
# Luciferase activity was measured by imaging with a IVIS Imaging System from Xenogen Corp., USA. The Luminescence was detected after 1 min. and 5 min after addition of 0.2 mg d-luciferin per. ml cell medium. Number of photons in each well pr. second was calculated using Living Image Software (Xenogen Corp., USA).
# [2] = target: T1, ligand binding domain of human RXRα (Homo sapiens, UniProt P19793); assay: GAL4-hRXRα LBD luciferase reporter, transient transfection in COS-1 cells; conditions: for Luciferase activation (fold activation) hRXRα: 10 μM, GAL4-hRXRα LBD chimera in COS-1 cells, negative control = 1.00
# T1 sequence (P19793 227-458 limits assumed): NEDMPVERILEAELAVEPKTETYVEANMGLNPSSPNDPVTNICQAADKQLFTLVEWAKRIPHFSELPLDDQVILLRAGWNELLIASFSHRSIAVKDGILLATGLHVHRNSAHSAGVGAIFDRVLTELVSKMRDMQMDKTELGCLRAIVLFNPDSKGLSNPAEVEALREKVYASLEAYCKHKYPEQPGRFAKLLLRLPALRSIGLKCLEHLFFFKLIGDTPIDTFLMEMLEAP
# [3] = target: T2, ligand binding domain of human PPARα (Homo sapiens, UniProt Q07869); assay: GAL4-hPPARα LBD luciferase reporter, transient transfection in COS-1 cells; conditions: for Luciferase activation (fold activation) hPPARα: 10 μM, GAL4-hPPARα LBD chimera in COS-1 cells, negative control = 1.00; for PPAR selectivity profile (in words): conclusion from table 1, 10 μM
# T2 sequence (Q07869 239-466 limits assumed): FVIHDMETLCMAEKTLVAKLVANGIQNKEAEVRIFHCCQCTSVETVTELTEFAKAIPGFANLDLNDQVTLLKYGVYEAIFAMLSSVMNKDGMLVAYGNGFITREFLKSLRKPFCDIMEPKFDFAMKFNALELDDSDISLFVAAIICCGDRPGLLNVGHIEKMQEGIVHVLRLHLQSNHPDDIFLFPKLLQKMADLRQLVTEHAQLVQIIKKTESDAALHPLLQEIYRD
# [4] = target: T3, ligand binding domain of human PPARγ (Homo sapiens, UniProt P37231); assay: GAL4-hPPARγ LBD luciferase reporter, transient transfection in COS-1 cells; conditions: 10 μM; GAL4-hPPARγ LBD chimera in COS-1 cells; negative control = 1.00
# T3 sequence (P37231 238-503 limits assumed): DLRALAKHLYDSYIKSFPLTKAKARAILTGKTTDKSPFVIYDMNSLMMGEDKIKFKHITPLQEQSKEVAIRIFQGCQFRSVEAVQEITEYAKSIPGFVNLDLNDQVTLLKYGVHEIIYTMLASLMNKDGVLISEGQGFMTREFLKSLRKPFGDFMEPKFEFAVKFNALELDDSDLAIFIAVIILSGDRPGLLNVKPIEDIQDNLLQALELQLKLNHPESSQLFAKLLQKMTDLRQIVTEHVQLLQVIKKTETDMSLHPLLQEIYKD
# [5] = target: T4, ligand binding domain of human PPARδ (Homo sapiens, UniProt Q03181); assay: GAL4-hPPARδ LBD luciferase reporter, transient transfection in COS-1 cells; conditions: 10 μM; GAL4-hPPARδ LBD chimera in COS-1 cells; negative control = 1.00
# T4 sequence (Q03181 211-439 limits assumed): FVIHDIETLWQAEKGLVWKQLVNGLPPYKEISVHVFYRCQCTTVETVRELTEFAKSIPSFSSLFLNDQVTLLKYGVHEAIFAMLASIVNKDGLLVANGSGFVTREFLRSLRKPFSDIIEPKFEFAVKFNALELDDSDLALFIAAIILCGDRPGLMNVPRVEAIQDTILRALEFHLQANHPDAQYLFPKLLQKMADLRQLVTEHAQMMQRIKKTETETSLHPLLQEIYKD
SMILES,Inhibition of the NF-κB pathway (in words) [1],Luciferase activation (fold activation) hRXRα [2] [fold activation],Luciferase activation (fold activation) hPPARα [3] [fold activation],PPAR selectivity profile (in words) [3],Luciferase activation (fold activation) hPPARγ [4] [fold activation],Luciferase activation (fold activation) hPPARδ [5] [fold activation],"RXRα ligand activity (in words) ([2]; conclusion from table 1, 10 μM)"
"CC/C=C\C/C=C\C/C=C\C/C=C\CC/C=C/C=C/C(=O)O [Compound 13, (2E,4E,8Z,11Z,14Z,17Z)-icosa-2,4,8,11,14,17-hexaenoic acid]",potent inhibitors of the NF-κB pathway,0.81 ± 0.05,4.89 ± 0.31,selective PPARα modulators/activators,1.63 ± 0.06,1.11 ± 0.16,–
"CC/C=C\C/C=C\C/C=C\C/C=C\CC/C=C/C=C(\C)C(=O)O [Compound 11, (2E,4E,8Z,11Z,14Z,17Z)-2-methyl-icosa-2,4,8,11,14,17-hexaenoic acid]",–,0.84 ± 0.09,6.79 ± 0.21,selective PPARα modulators/activators,1.67 ± 0.11,1.17 ± 00.20,–
"CC/C=C\C/C=C\C/C=C\C/C=C\CC/C=C/C=C/C(C)=C/C(=O)O [Compound 25, (2E,4E,6E,10Z,13Z,16Z,19Z)-3-methyl-docosa-2,4,6,10,13,16,19-heptaenoic acid]",potent inhibitors of the NF-κB pathway,1.57 ± 0.08,8.27 ± 0.81,PPAR pan modulators/activators,4.32 ± 0.29,1.47 ± 0.38,RXRα ligand
"Cc1cccc(Nc2cc(Cl)nc(SCC(=O)O)n2)c1C [Wy14643, reference compound]",–,–,2.27 ± 0.04,–,–,–,–
"CC/C=C\C/C=C\C/C=C\C/C=C\C/C=C\CCC/C(C)=C/C(=O)O [Compound 4, (2E,7Z,10Z,13Z,16Z,19Z)-3-methyl-docosa-2,7,10,13,16,19-hexaenoic acid]",–,0.90 ± 0.08,4.51 ± 0.52,selective PPARα modulators/activators,1.56 ± 0.12,1.28 ± 0.08,–

# Reference: patent US8178708B2, “Lipid derivatives” (Pronova Biopharma Norge AS, priority 2006, dated 2012)
